Data set [1] in a line: Caco-2 bidirectional assay (A-B and B-A) to study the effect of piperine (P-gp inhibitor) on the permeability. It is filed as in vitro ADME. The following applies: human. The method, then: (§1) Caco-2 cells were cultured in MEM media with 10% serum and seeded at a density of 75000 cells per mL and cultured for 21 days in a 24-well trans-well plate at 37° C., 5% CO2. The monolayer integrity was checked intermittently (Day 0-21) using Trans Epithelial Electric Resistance (TEER). Cells were treated with drugs as follows:
(§2) 2) Bidirectional Assay (A-B and B-A) to Study the Effect of Piperine (P-Gp Inhibitor) on the Permeability
(§3) For A-B, 400 μL samples were added to the wells as per the plate setup to the apical side in duplicates with 800 μL HBSS pH 7.4 in the basal wells. Samples were collected at 60, 90 and 120 minutes from the basal side. Mass balance samples at 0 and 120 minutes were collected from the apical side.
(§4) For B-A, 800 μL of the respective dilutions were added to the basal side in duplicates with 400 μL HBSS pH 7.4 in the apical wells. Samples were collected at 60, 90 and 120 minutes from the apical side. Mass balance samples at 0 and 120 minutes were collected from the basal side. The sample were analyzed on LCMS-MS.
(§5) At the end of the experiment the monolayer integrity was checked using and Lucifer yellow, calculating the % rejection of Lucifer yellow by incubating cells with 100 μg/mL Lucifer.
(§6) The apparent permeability (Papp) in units per second can be calculated by using the following equation,
(§7) For Lucifer yellow, % Lucifer Yellow Passage=[RFU(test)−RFU(blank)/RFU(equilibrium)−RFU(blank)]*100

Another data set has as its system Caco-2 cells. The data set is described as above. The format is in vitro ADME. The following applies: across the caco-2 monolayer; conclusion in words. The method, then:
as §1, §2, §3, §4, §5, §6, §7

The mark [2] stands for this setting: Digoxin 10 μM, Caco-2 monolayer, HBSS pH 7.4.

This is an account of results in patent US11224591B2 (Cipla Limited, priority 2016, dated 2022).

In general, efflux ratio refers to the permeability from basolateral to apical divided by that in the opposite direction, in the common usage. As a reminder, the Papp A→B is how fast a substance crosses the layer from the apical side. Broadly, the Papp B→A is the apparent permeability from the basolateral to the apical side of a cell layer.

Regarding `C[C@H]1O[C@@H](O[C@H]2[C@@H](O)C[C@H](O[C@H]3[C@@H](O)C[C@H](O[C@H]4CC[C@@]5(C)[C@H](CC[C@@H]6[C@@H]5C[C@@H](O)[C@]5(C)[C@@H](C7=CC(=O)OC7)CC[C@]65O)C4)O[C@@H]3C)O[C@@H]2C)C[C@H](O)[C@@H]1O` [Digoxin], the efflux ratio at 120 min, 10 μM in data set [1] (Caco-2, pH 7.4, Digoxin 10 μM, Papp B-A/Papp A-B) was determined as 12. In data set [1] (setting [2]), this compound gave a Papp A→B at 120 min, 10 μM of 0.829 ×10⁻⁶ cm/s and a Papp B→A at 120 min, 10 μM of 9.97 ×10⁻⁶ cm/s.

With `CO[C@H]1/C=C/O[C@@]2(C)Oc3c(C)c(O)c4c(O)c(c5c(nc6cc(C)ccn65)c4c3C2=O)NC(=O)/C(C)=C\C=C\[C@H](C)[C@H](O)[C@@H](C)[C@@H](O)[C@@H](C)[C@H](OC(C)=O)[C@@H]1C` [Rifaximin, [(2S,16Z,18E,20S,21S,22R,23R,24R,25S,26S,27S,28E)-5,6,21,23,25-pentahydroxy-27-methoxy-2,4,11,16,20,22,24,26-octamethyl-2,7 (epoxypentadeca-[1,11,13]trienimino)benzofuro[4,5-e]pyrido[1,2-a]-benzimidazole 1,15(2H)-dione,25-acetate]], the Permeability classification entry with Caco-2 cells is given as “high”. In data set [1] (Caco-2, pH 7.4), this compound had a Papp A→B at 120 min, 30 μM of 1.08 ×10⁻⁶ cm/s and a Papp B→A at 120 min, 30 μM of 6.17 ×10⁻⁶ cm/s.
